This note sets out measurements from ChEMBL document CHEMBL1201862, “PubChem BioAssay data set” (2004).

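Compound exposure: 48 hours, 5 concentrations, 96-well plates. The concentration for 50% growth inhibition is given as GI50.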 The source made the active and inactive calls. No stated cut-off is given here; in the data, active = GI50 up to about 1.1 µM and inactive = higher. Where only a bound is given, the exact number is not on record here.

A word on the GI50: it is the concentration that inhibits growth by half.

Some test systems named below: HCT-15; HOP-62; HOP-92; HT-29; K562; M19-MEL; Malme-3M; NCI-H226; NCI-H460; RPMI-8226; SF-539; SK-MEL-28; SK-MEL-2; SK-MEL-5; SNB-19; TK-10; UACC-62; SNB-75.
Experiment in all cases: DTP human tumour cell line panel, 48 h

On to `COc1ccc(OC)c(NC(=O)C(=O)NNC(=O)c2sc(NNC(C)=O)nc2C)c1`, for which the GI50 in the experiment on HCT-15 was 31 µM; in the experiment on HOP-62, 92.9 µM (inactive); with HOP-92, 8.69 µM (inactive); with HT-29, 35.6 µM (inactive); in the experiment with K562, 17.1 µM (inactive); in the experiment on M19-MEL it was 60.1 µM (inactive). For the same molecule, the GI50 in the experiment with Malme-3M is 49.2 µM (inactive); in the experiment with NCI-H226 it was 32.7 µM (inactive); with NCI-H460, 30.8 µM (inactive); in the experiment on RPMI-8226 it was 30.3 µM (inactive); with SF-539, 26.8 µM (inactive); with SK-MEL-28, 61.2 µM (inactive). Besides, the GI50 in the experiment with SK-MEL-2 was 43 µM (inactive); in the experiment with SK-MEL-5, 39.9 µM (inactive); in the experiment on SNB-19 it was 59.4 µM (inactive); in the experiment on TK-10 it was 88.3 µM (inactive); in the experiment with UACC-62 it was 29.6 µM (inactive).
As to `O=c1c2ccccc2nc(-c2ccccc2)n1NC(=S)Nc1ccc(Cl)cc1[N+](=O)[O-]`, the GI50 in the experiment on HCT-15 was 35 µM; with HOP-62 it was 77.3 µM (inactive); with HOP-92 it was 55.1 µM (inactive); with HT-29, 69.3 µM (inactive); in the experiment with K562, 50.9 µM (inactive); in the experiment on M19-MEL it was 54.1 µM (inactive). In addition, the GI50 in the experiment with Malme-3M is > 100 µM (inactive); with NCI-H226, 20.3 µM (inactive); in the experiment with NCI-H460, > 100 µM (inactive); in the experiment on RPMI-8226, 80.5 µM (inactive); in the experiment with SF-539, 41.1 µM (inactive); with SK-MEL-28 it was 21.7 µM (inactive). For the same molecule, the GI50 in the experiment on SK-MEL-2 was > 100 µM (inactive); with SK-MEL-5, 58.7 µM (inactive); in the experiment with SNB-75, 29.2 µM (inactive); in the experiment on TK-10, > 100 µM (inactive); in the experiment on UACC-62 it was 39.7 µM (inactive).
`CSc1ccc(/C=C2/C[N+](C)(C)C/C(=C/c3ccc(SC)cc3)C2=O)cc1`: the GI50 is 47 µM in the experiment with HCT-15; 24.5 µM (inactive) in the experiment with HOP-92; 5.47 µM (inactive) in the experiment with K562; 6.25 µM (inactive) in the experiment on M19-MEL; 4.16 µM (inactive) with Malme-3M; 32.1 µM (inactive) in the experiment with NCI-H226. For the same molecule, the GI50 with RPMI-8226 is 2.93 µM (inactive); in the experiment with SF-539, 17.7 µM (inactive); in the experiment with SK-MEL-28 it was 8.09 µM (inactive); with SK-MEL-2 it was 20.1 µM (inactive); in the experiment with SNB-75 it was 6.52 µM (inactive); with TK-10, 50.7 µM (inactive). Besides, the GI50 in the experiment on UACC-62 was 0.168 µM (active).
In the case of `NC(=O)c1ccc([N+](=O)[O-])cc1`, the concentration for 50% growth inhibition (GI50) was above 100 µM in the experiment on HCT-15; > 100 µM (inactive) in the experiment on HOP-62; > 100 µM (inactive) with HT-29; > 100 µM (inactive) in the experiment on K562; > 100 µM (inactive) in the experiment with M19-MEL; > 100 µM (inactive) with Malme-3M. Moreover, the GI50 with NCI-H226, in the experiment on NCI-H460, with RPMI-8226, in the experiment with SF-539, in the experiment on SK-MEL-28 and in the experiment with SK-MEL-2 was > 100 µM (inactive) throughout. Moreover, the GI50 in the experiment with SK-MEL-5, in the experiment with SNB-19, with SNB-75, in the experiment with TK-10 and in the experiment on UACC-62 was > 100 µM (inactive) each time.
For the molecule `Cn1nc(-c2ccccc2)c(C(=O)/C=C/c2ccc(F)cc2)c(N2CCCC2)c1=O`, the GI50 in the experiment on HCT-15 was 12.2 µM; in the experiment with HOP-92, 13.9 µM (inactive); in the experiment with HT-29, 4.99 µM (inactive); in the experiment on K562 it was 7.82 µM (inactive); in the experiment with M19-MEL it was 15.1 µM (inactive); with NCI-H460, 21.7 µM (inactive). The GI50 with RPMI-8226 is 6.62 µM (inactive); in the experiment with SF-539 it was 13.6 µM (inactive); with SK-MEL-28 it was 16 µM (inactive); in the experiment on SK-MEL-5 it was 12.4 µM (inactive); in the experiment on SNB-19, 17.2 µM (inactive); with TK-10, 24 µM (inactive). In addition, in the experiment on UACC-62, the GI50 was 12.7 µM (inactive).
For `CCOC(=O)c1cc2c(OCc3ccccc3)c(OC)cc3c2c(n1)N(c1ccc(OC)cc1)C(C)C3` (stereo not drawn), the GI50 in the experiment with HCT-15 was above 50 µM; in the experiment with HOP-62, > 50 µM (inactive); with HOP-92 it was 8.91 µM (inactive); with K562, > 50 µM (inactive); with M19-MEL, > 50 µM (inactive); with Malme-3M, > 50 µM (inactive). Further, the GI50 is 49.9 µM (inactive) in the experiment with NCI-H460; 2.69 µM (inactive) with RPMI-8226; > 50 µM (inactive) in the experiment on SK-MEL-28; > 50 µM (inactive) with SK-MEL-2; > 50 µM (inactive) in the experiment with SK-MEL-5; > 50 µM (inactive) in the experiment with SNB-19. Besides, the results for the GI50 with SNB-75, in the experiment on TK-10 and in the experiment with UACC-62 were > 50 µM (inactive), > 50 µM (inactive) and 49.3 µM (inactive), respectively.
As to `CC(=O)C1Cn2c(nc3ccccc32)C[Se]1` (stereo not drawn), the concentration for 50% growth inhibition (GI50) in the experiment with HCT-15 is 4.56 µM; in the experiment on HOP-62, 2.37 µM (inactive); in the experiment on HOP-92, 2.09 µM (inactive); in the experiment with HT-29, 7.48 µM (inactive); in the experiment on K562, 4.23 µM (inactive); with M19-MEL, 1.99 µM (inactive). Moreover, the GI50 in the experiment with Malme-3M is 2.47 µM (inactive); in the experiment on NCI-H226 it was 3.72 µM (inactive); in the experiment with NCI-H460, 4.15 µM (inactive); in the experiment on RPMI-8226, 25.3 µM (inactive); in the experiment on SF-539, 2.29 µM (inactive); in the experiment on SK-MEL-28 it was 2.98 µM (inactive). The GI50 with SK-MEL-5 was 2 µM (inactive); in the experiment with SNB-19, 5 µM (inactive); with SNB-75 it was 2.55 µM (inactive); in the experiment with TK-10, 4.41 µM (inactive); in the experiment on UACC-62, 1.97 µM (inactive).
As to `O=C(c1ccc(Cl)cc1Cl)N(/N=C/C=C/c1ccccc1)c1nnc(-c2ccccc2)c(-c2ccccc2)n1`, the 50% growth inhibitory concentration (GI50) was above 100 µM in the experiment on HCT-15; > 100 µM (inactive) in the experiment with HOP-62; > 100 µM (inactive) with HT-29; > 100 µM (inactive) with K562; > 100 µM (inactive) in the experiment with M19-MEL; > 100 µM (inactive) with Malme-3M. In addition, the GI50 with NCI-H226 was > 100 µM (inactive); in the experiment on NCI-H460, > 100 µM (inactive); in the experiment with RPMI-8226 it was 37.5 µM (inactive); in the experiment on SF-539, > 100 µM (inactive); in the experiment with SK-MEL-28, > 100 µM (inactive); in the experiment with SK-MEL-2 it was > 100 µM (inactive). For the same molecule, the GI50 in the experiment with SK-MEL-5, with SNB-19, in the experiment on SNB-75, in the experiment with TK-10 and in the experiment with UACC-62 was > 100 µM (inactive) in each case.
On to `COc1cc(OC(=O)c2c(O)cc(O)c(O)c2C)cc(C)c1C(=O)Oc1cc(C)c(C(=O)O)c(O)c1`, for which the GI50 in the experiment on HCT-15 was above 100 µM; in the experiment on HOP-62, > 100 µM (inactive); in the experiment with HOP-92 it was > 100 µM (inactive); in the experiment with HT-29, > 100 µM (inactive); in the experiment with K562, > 100 µM (inactive); in the experiment on M19-MEL it was > 100 µM (inactive). In addition, the GI50 in the experiment with Malme-3M, with NCI-H226, in the experiment on NCI-H460, in the experiment with RPMI-8226, in the experiment on SF-539 and in the experiment on SK-MEL-28 was > 100 µM (inactive) in each case. Besides, the GI50 in the experiment on SK-MEL-2, in the experiment with SK-MEL-5, in the experiment on SNB-75, with TK-10 and in the experiment with UACC-62 was > 100 µM (inactive) throughout.
For the molecule `CC#CC1C2CCCC1(CSc1ccccc1)NC(=O)O2` (stereo not drawn), the GI50 was above 100 µM in the experiment with HCT-15; > 100 µM (inactive) in the experiment with HOP-62; > 100 µM (inactive) in the experiment with HOP-92; > 100 µM (inactive) in the experiment on HT-29; > 100 µM (inactive) in the experiment with K562; > 100 µM (inactive) with M19-MEL. Also, the GI50 in the experiment on Malme-3M was > 100 µM (inactive); in the experiment with NCI-H226, > 100 µM (inactive); with NCI-H460, > 100 µM (inactive); in the experiment on RPMI-8226 it was 63.8 µM (inactive); in the experiment on SF-539, > 100 µM (inactive); with SK-MEL-2, > 100 µM (inactive). The GI50 with SK-MEL-5, with SNB-19, in the experiment on SNB-75, with TK-10 and in the experiment with UACC-62 was > 100 µM (inactive) throughout.
As to `COc1ccc(CCc2cc(OC)c(O)c(OC)c2)cc1`, the GI50 was 98.6 µM (inactive) in the experiment on HOP-62; 66.8 µM (inactive) in the experiment on HOP-92; 41 µM (inactive) in the experiment with HT-29; 33 µM (inactive) with K562; 57.1 µM (inactive) in the experiment on M19-MEL; 74.1 µM (inactive) in the experiment with Malme-3M. Moreover, the GI50 with NCI-H226 is 41.8 µM (inactive); with NCI-H460, 82 µM (inactive); with RPMI-8226 it was 50.8 µM (inactive); with SF-539 it was 60.7 µM (inactive); in the experiment with SK-MEL-28, 19.6 µM (inactive); with SK-MEL-2, 53 µM (inactive). Moreover, the GI50 with SK-MEL-5 was 32.8 µM (inactive); in the experiment with SNB-19 it was 98.6 µM (inactive); in the experiment on SNB-75, 29.4 µM (inactive); with UACC-62, 69 µM (inactive).
`COc1ccc(COCC(Cn2ccnc2)OCc2ccc(C(=O)O)cc2)cc1` (stereo not drawn): the GI50 with HCT-15 is above 100 µM; with HOP-62, > 100 µM (inactive); with HOP-92, > 100 µM (inactive); in the experiment on HT-29 it was > 100 µM (inactive); in the experiment on K562 it was > 100 µM (inactive); with M19-MEL it was > 100 µM (inactive). Moreover, the GI50 with Malme-3M, in the experiment with NCI-H226, with NCI-H460, in the experiment on RPMI-8226, in the experiment with SF-539 and in the experiment with SK-MEL-28 was > 100 µM (inactive) in each case. The GI50 in the experiment on SK-MEL-2 was > 100 µM (inactive); with SK-MEL-5 it was > 100 µM (inactive); in the experiment on SNB-75, 59.6 µM (inactive); in the experiment on TK-10 it was > 100 µM (inactive); in the experiment with UACC-62, > 100 µM (inactive).
